The results in this text go back to ChEMBL document CHEMBL4138122, “Azaphenothiazines - promising phenothiazine derivatives. An insight into nomenclature, synthesis, structure elucidation and biological properties” (Eur J Med Chem, 2017).

The term IC50 denotes the concentration that gives 50% inhibition. The term MIC denotes the lowest concentration found to suppress growth. The low end stands for a more susceptible organism, the high end for a less susceptible organism.

One data set concerns C32. The data set is described as follows: Cytotoxicity against human C32 cells. Type of data set: functional, cell-based.
A further data set has as its system MDA-MB-231. Kind of data set: Cytotoxicity against human MDA-MB-231 cells. Type of data set: functional, cell-based.
Another data set concerns SNB-19. The data set is described as follows: Cytotoxicity against human SNB19 cells. It is filed as functional, cell-based.
Data set [1] concerns the target Intercellular adhesion molecule 1 (Homo sapiens, UniProt P05362). Kind of data set: Inhibition of ICAM1 (unknown origin).
The subject of another data set is MCF7. Kind of data set: Cytotoxicity against human MCF7 cells. It is filed as functional, cell-based.
A further data set concerns Escherichia coli. Kind of data set: Antibacterial activity against Escherichia coli. It is filed as functional.
The test system of a further data set is PBMC. The data set is described as follows: Cytotoxicity in human PBMCs assessed as reduction in cel viability at 50 ug/ml. Type of data set: cell-based.
Another data set has as its system T47D. Kind of data set: Cytotoxicity against human T47D cells. Type of data set: functional, cell-based.
Another data set deals with Bacillus subtilis. Kind of data set: Antibacterial activity against Bacillus subtilis. Type of data set: functional.
For a further data set, the system named is Staphylococcus aureus. Kind of data set: Antibacterial activity against Staphylococcus aureus. It is filed as functional.
The nature of data set [2]: Displacement of [3H]-diazepam from benzodiazepine receptor in rat brain membranes after 30 mins. Type of data set: cell membranes, Membrane.
A further data set deals with Liver. The data set is described as follows: Antioxidant activity in rat liver microsomal membranes assessed as inhibition of Fe(2+)/ascorbate-induced lipid peroxidation. It is filed as functional, microsomes, microsome.

≈ marks a conversion by molar mass, not a printed value.

Chain of Intercellular adhesion molecule 1 (P05362 whole entry): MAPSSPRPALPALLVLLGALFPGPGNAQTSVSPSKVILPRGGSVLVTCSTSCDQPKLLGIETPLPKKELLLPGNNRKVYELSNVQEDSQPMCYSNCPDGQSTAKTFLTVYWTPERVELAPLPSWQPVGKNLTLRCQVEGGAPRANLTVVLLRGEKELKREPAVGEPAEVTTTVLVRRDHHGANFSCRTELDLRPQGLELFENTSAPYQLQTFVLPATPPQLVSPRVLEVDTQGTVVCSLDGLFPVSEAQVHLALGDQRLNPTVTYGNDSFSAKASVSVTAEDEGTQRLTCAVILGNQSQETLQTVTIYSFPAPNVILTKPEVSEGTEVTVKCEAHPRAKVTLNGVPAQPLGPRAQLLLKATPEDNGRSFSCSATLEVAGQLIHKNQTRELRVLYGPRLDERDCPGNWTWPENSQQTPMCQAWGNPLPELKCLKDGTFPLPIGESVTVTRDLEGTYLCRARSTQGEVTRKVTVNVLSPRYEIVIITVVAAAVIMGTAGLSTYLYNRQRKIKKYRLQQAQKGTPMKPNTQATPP

In the data set with C32, `C(#CCN1c2ccncc2Sc2ccncc21)CN1CCCCC1` displayed an IC50 of 24.8 to 29.2 µg/mL (≈ 73.7 to 86.8 µM).

For the compound `C[n+]1cc2c(c3ccccc31)Nc1ccc(N3CCNCC3)cc1S2.[Cl-]`, the IC50 in the data set on C32 was 0.5 to 7.5 µg/mL; with MDA-MB-231 it was 0.5 to 12 µg/mL; in the data set on SNB-19 it was 0.7 to 11.5 µg/mL. `C/C(=C\CC1CCN(Cc2ccc3c(c2)Nc2nccnc2S3)CC1)C(=O)O` displayed a half-inhibitory concentration (IC50) in [1] of 420 nM. In the case of `COc1ccc2c(c1)Nc1c(c[n+](C)c3ccccc13)S2.[Cl-]`, the IC50 with C32 is 0.5 to 7.5 µg/mL; in the data set with MDA-MB-231, 0.5 to 12 µg/mL; in the data set on SNB-19, 0.7 to 11.5 µg/mL. Consider `CC(=O)N1CCN(Cc2ccc3c(c2)Nc2nccnc2S3)CC1`, for which the IC50 in data set [1] fell in the range of 270 to 1400 nM. The same measure, in the same setting: the result for `O=C(O)C1CCN(Cc2ccc3c(c2)Nc2nccnc2S3)CC1` reads 420 to 1000 nM.

Turning to `C=CCN1c2ccncc2Sc2ncccc21`, the IC50 in the data set on MCF7 was in the range of 28.4 to 32.9 µg/mL (≈ 118 to 136 µM). The compound `O=C(O)CC1CCN(Cc2ccc3c(c2)Nc2nccnc2S3)CC1` returned an IC50 in data set [1] of 530 nM. On to `C[n+]1cc2c(c3ccccc31)Nc1cccc(O)c1S2.[Cl-]`, for which it took 14 µg/mL to inhibit growth against Escherichia coli (Escherichia coli) (MIC). Take `CCN(CC)CC#CCN1c2cnccc2Sc2cccnc21`: the Activity entry in the data set on PBMC is recorded as “<= 22%”. The IC50 with C32, in the data set with T47D and in the data set on SNB-19 was 26.1 to 27.5 µg/mL (≈ 80.4 to 84.8 µM) each time. Turning to `NS(=O)(=O)NC1CCN(Cc2ccc3c(c2)Nc2nccnc2S3)CC1`, the IC50 in [1] lay in the range of 270 to 1400 nM. In the case of `O=[N+]([O-])c1cnc2c(c1)Sc1cccc(F)c1N2`, the “inhibition zone (IZ)” value in the data set on Bacillus subtilis is given as 8 - 12 mm; with Staphylococcus aureus it was 8 - 15 mm; in the data set on Escherichia coli, 7 - 12 mm. For the compound `C(#CCN1c2cnccc2Sc2cccnc21)CN1CCN(c2ccccc2)CC1`, the Activity result with PBMC was “<= 22%”. For the same compound, the values for the IC50 in the data set with C32, in the data set with T47D and in the data set on SNB-19 were 26.1 to 27.5 µg/mL (≈ 63.1 to 66.5 µM), 45.8 µg/mL (≈ 111 µM) and 33.1 µg/mL (≈ 80 µM), respectively.

On to `c1cnc2c(n1)Nc1cc(CN3CCCCCC3)ccc1S2`, for which the IC50 in data set [1] lay in the range of 270 to 1400 nM.

In the case of `c1cnc(N2c3ccncc3Sc3ncccc32)nc1`, inhibition in the data set on MCF7 was half-maximal at 0.73 µg/mL (≈ 2.61 µM) (IC50). In the case of `CCN(C)CC#CCN1c2cnccc2Sc2cccnc21`, the Activity entry in the data set with PBMC is “<= 22%”. For the same compound, the IC50 in the data set on C32, with T47D and with SNB-19 was 26.1 to 27.5 µg/mL (≈ 84.1 to 88.6 µM) throughout. With `C[n+]1cc2c(c3ccccc31)Nc1cc(OCCN3CCCCC3)ccc1S2.[Cl-]`, the half-maximal inhibitory concentration (IC50) in the data set with C32, in the data set with MDA-MB-231, in the data set with T47D and with SNB-19 was not above 3 µg/mL throughout.

For `O=[N+]([O-])c1cnc2c(c1)Sc1cc(F)ccc1N2`, the figures for the “inhibition zone (IZ)” value in the data set with Bacillus subtilis, in the data set on Staphylococcus aureus and in the data set with Escherichia coli were 12 mm, 8 - 15 mm and 7 - 12 mm, respectively. The compound `NS(=O)(=O)N1CCN(Cc2ccc3c(c2)Nc2nccnc2S3)CC1` displayed an IC50 in data set [1] of 270 to 1400 nM. On the same count and under the same terms, to `c1cnc2c(n1)Nc1cc(CN3CCC3)ccc1S2` belongs 270 to 1400 nM. Consider `CN(C)CCCN1c2ccc(F)cc2Sc2cnc3ccccc3c21`, for which the IC50 in the data set on MDA-MB-231 was 7.43 µg/mL (≈ 21 µM); in the data set with MCF7 it was 7.91 µg/mL (≈ 22.4 µM).

Consider `C[n+]1cc2c(c3ccccc31)Nc1cc(OCCN3CCCC3)ccc1S2.[Cl-]`, for which the IC50 in the data set on C32, in the data set on MDA-MB-231, in the data set on T47D and in the data set on SNB-19 was not above 3 µg/mL in each case. With `O=S(=O)(NC1CCN(Cc2ccc3c(c2)Nc2nccnc2S3)CC1)C(F)(F)F`, the IC50 in data set [1] lay in the range of 270 to 1400 nM.

`CC(=O)NC1CCN(Cc2ccc3c(c2)Nc2nccnc2S3)CC1` had an IC50 in data set [1] of 270 to 1400 nM. In the case of `FC(F)(F)c1cccc2c1Sc1cnc3ccccc3c1N2`, the IC50 with SNB-19 worked out at 10 µg/mL (≈ 31.4 µM); in the data set on MCF7, 9.76 µg/mL (≈ 30.7 µM).

The compound `CN1c2ccccc2Sc2cnc(O)c(C#N)c21` yielded an IC50 in [2] of 310 to 910 nM.

For `C[n+]1cc2c(c3ccccc31)Nc1ccc(N3CCCCC3)cc1S2.[Cl-]`, the IC50 fell in the range of 0.5 to 7.5 µg/mL in the data set on C32, 0.5 to 12 µg/mL with MDA-MB-231 and 0.7 to 11.5 µg/mL with SNB-19. The compound `O=S(=O)(NC1CCN(Cc2ccc3c(c2)Nc2nccnc2S3)CC1)c1ccccc1` returned an IC50 in data set [1] of 270 to 1400 nM. As for `C[n+]1cc2c(c3ccccc31)Nc1cc(OCCN3CCOCC3)ccc1S2.[Cl-]`, the IC50 with C32, in the data set with MDA-MB-231, in the data set on T47D and with SNB-19 was not above 3 µg/mL each time. For `c1ccc2nc3c(cc2c1)Sc1c(ccc2ccccc12)N3`, in the data set with Liver, the IC50 is 6 µg/mL.

Regarding `CC(C)(CCC1CCN(Cc2ccc3c(c2)Nc2nccnc2S3)CC1)C(=O)O`, the IC50 in data set [1] lay in the range of 420 to 1000 nM. `N#Cc1c2c(c[nH]c1=O)Sc1ccc([N+](=O)[O-])cc1N2`: in data set [2], the IC50 fell in the range of 310 to 910 nM. Consider `COc1ccc2c(c1)Sc1c[n+](C)c3ccccc3c1N2.[Cl-]`, for which the values for the IC50 in the data set with C32, in the data set with MDA-MB-231 and in the data set on SNB-19 were 0.5 to 7.5 µg/mL, 0.5 to 12 µg/mL and 0.7 to 11.5 µg/mL, respectively. In turn, `NC(=O)C1CCN(Cc2ccc3c(c2)Nc2nccnc2S3)CC1` returned an IC50 in [1] of 270 to 1400 nM.

Consider `O=c1[nH]c2ccccc2c2c1Sc1ccccc1N2`, for which the MIC result with Staphylococcus aureus is on record as “>=200 ug”. For the compound `CN1CCN(CC#CCN2c3ccncc3Sc3ccncc32)CC1`, the IC50 was 24.8 to 29.2 µg/mL (≈ 70.6 to 83.1 µM) in the data set on C32, 9.6 µg/mL (≈ 27.3 µM) in the data set on T47D and 21.2 µg/mL (≈ 60.3 µM) in the data set with SNB-19. As for `c1ccc2nc3c(cc2c1)Sc1c(ccc2ncccc12)N3`, the IC50 with Liver stood at 16000 nM. As for `CCCCOc1ccc2c(c1)Nc1c(c[n+](C)c3ccccc13)S2.[Cl-]`, the figures for the IC50 in the data set on C32, in the data set on MDA-MB-231 and in the data set on SNB-19 were 0.5 to 7.5 µg/mL, 0.5 to 12 µg/mL and 0.7 to 11.5 µg/mL, respectively.

`c1cnc2c(n1)Nc1cc(CN3CCCCCCC3)ccc1S2` registered an IC50 in data set [1] of 270 to 1400 nM.
